Measurements: patent US20220079993A1, “NON-NATURALLY OCCURRING THERMOGENIC ADIPOCYTES, METHODS OF MAKING, AND METHODS OF USE THEREOF” (University of Georgia Research Foundation, Inc., priority 2019, published 2022)
Where a name gives a salt, the structure may show the parent alone. Read-outs that look alike come from different tables or passages of the source.

What was measured:
Type in all cases: cell-based, human
beige adipocytes [1] = experiment: High-throughput primary screen, lipolysis assay (glycerol release), 384-well; settings: 20 μM; for % Control (relative levels of glycerol release): 24 hours of drug treatment, vs untreated beige adipocytes; for Outcome in the primary screen (glycerol release), in words: 24 hours, cut-offs at 2-fold
Method: ADSCs were seeded at 5000 cell/cm^2 in 12-well plates, grown for 5 days and then induced to differentiate into GC for 20 days. […] Cells were treated with forskolin (20 μM) for indicated time periods and supernatant samples were collected. Lipolysis assay was performed with free glycerol reagent (Sigma, F6428-40ML), according to manufacturer instructions.
ADSCs were plated in 384-well plates at a density of 5000 cell/cm2 and grown to confluency over ˜4 days. Cells were then differentiated to beige adipocytes using B-8 medium for 21 days. All cell culture and incubations in the 384-well format were done at 37° C. and 5% CO2. […] The use of FDA-approved drugs may allow for re-purposing for therapeutic use.
(§1) Lipolysis assays were performed after 24 hours of drug treatment by measuring free glycerol released in the 384-well format, using the procedure described above. Absorbance for each compound was normalized to untreated control samples for each plate and calculated as a percent of the control. Cut-offs for “activating” and “inhibiting” compounds were set at 2-fold. Validation assays were performed for select compounds at a range of concentration doses.

beige adipocytes [2] = experiment: Lipolysis validation assays of primary hits at three concentrations; set-up: % of Control (1) / % of Control (2) / % of Control (3) / % of Control (4): unit of the concentration uncertain; settings: for activity at 2.2 µM: Conc. 2.2 µM; for activity at 6.7 µM: Conc. 6.7 µM; for activity at 20 µM: Conc. 20 µM; for activity at 2200 µM: Conc. 2.2 mM
Method: ADSCs were seeded at 5000 cell/cm^2 in 12-well plates, grown for 5 days and then induced to differentiate into GC for 20 days. Prior to the assay, cells were washed in DPBS twice and then incubated with DMEM with 2% fatty-acid free BSA (Santa Crus, sc-500949) and Triascin C (5 μM). Cells were treated with forskolin (20 μM) for indicated time periods and supernatant samples were collected. Lipolysis assay was performed with free glycerol reagent (Sigma, F6428-40ML), according to manufacturer instructions.
as §1
Next, lipolysis assays were performed for all 111 compounds identified in the primary screen at three different concentrations, of which twenty-four were selected for further analysis based on their newness and/or reproducibility.

UCP1 = experiment: Secondary screen, UCP1 transcript levels by qRT-PCR; settings: secondary screen of primary hits
Excerpt: FIG. 8A is a scheme used for high-throughput screening (HTS). FIG. 8B is a scatter-plot of glycerol release for each compound assayed (n=3889) in an HTS screen. Data are shown as the percentage of glycerol released compared to untreated beige adipocytes (% of control). FIG. 8C is a computational analysis of preliminary hits identified in the HTS using BiNChE. FIG. 8D is a plot showing the results of a secondary hit validation of primary compounds performed by evaluating levels of UCP1 transcript by qRT-PCR. Unstimulated beige cells, selected adrenergic agonists, and potential new non-adrenergic beige fat activators identified in the primary screen are shown. Transcript levels were normalized to UCP1 levels in ADSCs, n=3 for each technical 20 replicate. *P<0.0.05, **P<0.01, ***P<0.005. FIGS. 8E and 8F are bar graphs showing secondary screening of known thermogenic activators. Transcript levels of UCP1 were assayed in unstimulated ADSCs and ADSC-derived beige adipocytes and following treatment with forskolin (FSK, 20 μM), isoproterenol (1, 10 μM) (8E) and Mirabegron (1, 10 and 25 μM) (8F). Transcript levels were determined by qRT-PCR. n=3 for each independent replicate. Data are mean+/−standard deviation. *P<0.0.05, **P<0.01.
Cells were washed with DPBS, lysed directly on the plate and used for RNA isolation with the E.Z.N.A Total RNA Kit (Omega, R6834-02) according to manufacturer instructions. RNA quantitation was performed with the Biotek Synergy 2 plate reader and cDNA was synthesized using 1 ug of RNA with the iScript cDNA Synthesis Kit (Bio-Rad, 1708841). The qRT-PCR was performed on a ViiA7 Real-Time PCR System (ThermoFisher) using a TaqMan Universal PCR Master Mix (ThermoFisher, 4324020) according to manufacturer instructions with the following TaqMan primer/probe sets (UCP1, Hs01084772_m1), DIO2, Hs00988260_ml, 18S rRNA, Hs03928985_g1). Each assay was performed in triplicate and normalized to 18S rRNA and graphed as mean+/−standard deviation.
To determine if hits identified in the first-round screen activated the thermogenic program, UCP1 transcript levels were used as a readout. This secondary screen incorporated adrenergic agonists, such as Mirabegron, isoproterenol and phenylephrine, and eighteen additional compounds with no reported function in thermogenic regulation (FIG. 8D, 8E, 8F). 18/25 (72%) of the lipolysis-activating compounds identified in the primary screen also activate the thermogenic program through UCP1. Twelve of these compounds have no reported adrenergic agonist activity and could potentially operate through different signaling mechanisms (FIG. 8D and Table 9).

[3] = Homo sapiens, Adipocyte, 24 h, read-out: % of Control (2)
[4] = Homo sapiens, Adipocyte, 24 h, read-out: % of Control (4)
[5] = Homo sapiens, Adipocyte, 24 h, read-out: % of Control (1)
[6] = Homo sapiens, Adipocyte, 24 h, read-out: % of Control (3)

Structure (SMILES)	% Control (relative levels of glycerol release) (beige adipocytes [1]) [% control]	activity at 2.2 µM (beige adipocytes [2]; [3]) [%]	activity at 2.2 µM (beige adipocytes [2]; [4]) [%]	activity at 6.7 µM (beige adipocytes [2]; [5]) [%]	activity at 6.7 µM (beige adipocytes [2]; [3]) [%]	activity at 6.7 µM (beige adipocytes [2]; [6]) [%]	activity at 6.7 µM (beige adipocytes [2]; [4]) [%]	activity at 20 µM (beige adipocytes [2]; [5]) [%]	activity at 20 µM (beige adipocytes [2]; [3]) [%]	activity at 20 µM (beige adipocytes [2]; [6]) [%]	activity at 20 µM (beige adipocytes [2]; [4]) [%]	activity at 2200 µM (beige adipocytes [2]; [5]) [%]	activity at 2200 µM (beige adipocytes [2]; [6]) [%]	other results
COC1(C2=NCCN2)COc2ccccc2O1.Cl (stereo not drawn) [RX 821002 hydrochloride]	30.77	–	–	–	–	–	–	–	–	–	–	–	–	–
CC(C)(C)NCC(O)COc1cccc2c1CCC(=O)N2.Cl (stereo not drawn) [Carteolol HLC]	32.31	–	–	–	–	–	–	–	–	–	–	–	–	–
CC(C)NCC(O)c1ccc(O)c(O)c1 (stereo not drawn) [Isoproterenol HCl]	–	272	251	284	294	241	236	289	268	252	237	282	236	Outcome in the primary screen (glycerol release), in words (beige adipocytes [1]): identified as primary hits
Oc1ccc(-c2nc(-c3ccc(F)cc3)c(-c3ccncc3)[nH]2)cc1 [SB202190 (FHPI)]	34.88	–	–	–	–	–	–	–	–	–	–	–	–	–
CC[C@@H]1C(=O)OC[C@@H]1Cc1cncn1C [Pilocarpine nitrate]	–	135	89.8	220	260	167	84.2	200	290	230	181	109	176	Activation of the thermogenic program (UCP1 transcript), in words (UCP1): activators in both rounds of screening
CC1(C)C(=O)N(CCN2CCC(C(=O)c3ccc(F)cc3)CC2)c2ccccc21 [LY-310, 762]	–	–	–	–	–	–	–	–	–	–	–	–	–	% of Control (1) (beige adipocytes [2]; Conc. 2.2 (unit uncertain)): 179.4 % of Control; % of Control (2) (beige adipocytes [2]; Conc. 2.2 (unit uncertain)): 180.24 % of Control; % of Control (3) (beige adipocytes [2]; Conc. 2.2 (unit uncertain)): 180.44 % of Control; % of Control (4) (beige adipocytes [2]; Conc. 2.2 (unit uncertain)): 143.79 % of Control; % of Control (1) (beige adipocytes [2]; Conc. 6.7 (unit uncertain)): 179.76 % of Control; % of Control (2) (beige adipocytes [2]; Conc. 6.7 (unit uncertain)): 199.88 % of Control; % of Control (3) (beige adipocytes [2]; Conc. 6.7 (unit uncertain)): 222.09 % of Control; % of Control (4) (beige adipocytes [2]; Conc. 6.7 (unit uncertain)): 289.77 % of Control; % of Control (1) (beige adipocytes [2]; Conc. 20 (unit uncertain)): 264.29 % of Control; % of Control (2) (beige adipocytes [2]; Conc. 20 (unit uncertain)): 223.06 % of Control; % of Control (3) (beige adipocytes [2]; Conc. 20 (unit uncertain)): 225.27 % of Control; % of Control (4) (beige adipocytes [2]; Conc. 20 (unit uncertain)): 201.38 % of Control; Activation of the thermogenic program (UCP1 transcript), in words (UCP1): activators in both rounds of screening
CC(C)NCC(O)c1ccc(O)c(O)c1.Cl (racemic) [(±)-Isoproterenol hydrochloride]	389.02	–	–	–	–	–	–	–	–	–	–	–	–	–
CC(C)NC[C@@H](O)c1ccc(O)c(O)c1.O=C(O)C(O)C(O)C(=O)O [S(−)-Isoproterenol (+)-bitartrate]	367.84	–	–	–	–	–	–	–	–	–	–	–	–	–
CNC(=O)c1ccc(C)c(-n2c(C)cc(OCc3ccc(F)cc3F)c(Br)c2=O)c1 [PH-797804]	38.23	–	–	–	–	–	–	–	–	–	–	–	–	–
CC(C)NCC(O)c1cc(O)cc(O)c1 (stereo not drawn) [Metaproterenol Sulfate]	–	298	305	311	412	293	283	305	293	308	274	327	291	–
O=C(Nc1c[nH]nc1-c1nc2ccc(CN3CCOCC3)cc2[nH]1)NC1CC1 [AT9283]	–	115	133	151	152	161	177	132	144	202	159	163	142	–
CCc1cnn2c(NCc3ccc[n+]([O-])c3)cc(N3CCCC[C@H]3CCO)nc12 [Dinaciclib]	–	232	179	180	204	149	129	291	246	60.7	262	175	193	–
CCC(NC(C)C)C(O)c1ccc(O)c(O)c1 (stereo not drawn) [Isoetharine Mesylate]	–	307	106	373	301	339	247	417	304	204	260	294	258	–
Nc1nc(CC(=O)Nc2ccc(CCNC[C@H](O)c3ccccc3)cc2)cs1 [Mirabegron]	211.65	198	131	–	162	168	192	200	211	65	201	142	172	Outcome in the primary screen (glycerol release), in words (beige adipocytes [1]): efficacy in the HTS; activity at 6700 µM (beige adipocytes [2]; Homo sapiens, Adipocyte, 24 h, Conc. 6.7 mM, read-out: % of Control (1)): 203%
CC(C)NC[C@H](O)c1ccc(O)c(O)c1.O=C(O)C(O)C(O)C(=O)O [R(+)-Isoproterenol (+)-bitartrate]	363.04	–	–	–	–	–	–	–	–	–	–	–	–	–
Cc1[nH]c(=O)c(C#N)cc1-c1ccncc1 [Milrinone]	–	117	170	236	154	116	142	168	205	171	185	99	126	–
